Results reported in US11905522B2, “Treatment of diseases by liver expression of an enzyme which has a deoxyribonuclease (DNase) activity” (CLS THERAPEUTICS LIMITED, priority 2018, dated 2024).
Where two headings read alike, the source gives them in different places.

Experiments:
[1] = test system: MIA PaCa-2 xenografts; conditions: vector 1.00 × 10^11 GC/kg IV single dose (Groups 2, 3), Gemcitabine 60 mg/kg IP BIW
Procedure: 56 female BALB/c nude mice (IBCH RAN) of 6-8 weeks age and 18-22 g weight were used in experiment. The mice were kept in individual ventilation cages at controlled temperature and humidity with four animals in each cage. Each mouse was inoculated subcutaneously at the right flank with MIA PaCa-2 pancreatic tumor cells (1×10^7) in 0.2 ml of PBS supplemented with BD Matrigel (1:1) for tumor development. The treatments were started on day 17 after tumor inoculation when the average tumor size reached approximately 170 mm^3. Each group consisted of eight tumor-bearing mice.
Tumor size was measured twice weekly in two dimensions using a caliper, and the volume was expressed in mm^3 using the formula: V=0.5 a×b^2 where a and b are the long and short diameters of the tumor, respectively. At the time of routine monitoring, the animals were checked daily for any effects of tumor growth and treatments on normal behavior such as mobility, food and water consumption by visual inspection only, loss or gain of body weight (measured twice weekly), eye/hair matting, and any other abnormal effects. On day 35, the study was terminated, the mice were humanely sacrificed by CO2, and blood was sampled from the central and hepatic veins. Liver tissues were also sampled and immersed into formalin for fixing.

[2] = Serum DNase I activity (ORG590), MIA PaCa-2 model; assay type: in vivo, BALB/c nude mice; conditions: day 35, regimen per Table 3 (rhDNaseI protein 50 mg/kg, Group 6)
Procedure: Serum DNase I activity was measured using ORG590 (Orgentec) according to the manufacturer's protocol. Detection was performed using microplate photometer (Multiscan FC) at 450 nm with a correction wavelength of 620 nm. cfDNA in the liver tissue was quantified by immunohistochemistry (IHC) in liver paraffin slides using AC-30-10 mouse IgG DNA binding antibodies (Sigma) as primary antibodies and Novolink Polymer Detection Systems Novocastra (Leica Biosystems).

[3] = test system: cfDNA in the liver tissue; test: cfDNA in liver tissue by immunohistochemistry, MIA PaCa-2 model; assay type: in vivo, BALB/c nude mice; conditions: day 35; vector given with gemcitabine (Group 2); gemcitabine alone (Group 7)
Procedure: Detection was performed using microplate photometer (Multiscan FC) at 450 nm with a correction wavelength of 620 nm. cfDNA in the liver tissue was quantified by immunohistochemistry (IHC) in liver paraffin slides using AC-30-10 mouse IgG DNA binding antibodies (Sigma) as primary antibodies and Novolink Polymer Detection Systems Novocastra (Leica Biosystems).

[4] = test system: Circulating cfDNA; conditions: day 35; regimen per Table 3 (rhDNaseI protein 50 mg/kg, Group 6)
Procedure: SYBR® Gold Nucleic Acid Gel Stain (Invitrogen) was diluted first at 1:1000 in dimethyl sulphoxide and then at 1:8 in phosphate-buffered saline. 10 μl of plasma samples were applied to 96-well plates. 40 μl of diluted SYBR® Gold was added to each well (final dilution 1:10,000) and fluorescence was measured with a 96 well fluorometer at an emission wavelength of 535 nm and an excitation wavelength of 485 nm.

[5] = test system: lung carcinoma and hepatoma metastatic disease; conditions: administered daily at 0.02-2.3 mg/kg; cited from earlier work
[6] = test system: GVHD; conditions: mouse, in vivo; cited from earlier work
[7] = DNase activity in blood, bacteriophage-induced leaky gut rats; assay type: in vivo, Wistar rats; conditions: twice daily IV 50 mg/kg day 7 to day 12
Procedure: At day 7 of phage treatment, rats were randomized into 4 groups as follows: six rats received intrahepatic injection of 1.0×10^12 LVP in a volume of 200 μl; six rats received injection of 1.0×10^12 LVP in a volume of 200 μl into a thigh muscle; six rats received twice daily intravenous injections of recombinant DNase I protein at 50 mg/kg between day 7 and day 12. The remaining six rats were used as the untreated leaky gut control. An additional six healthy rats were used as a healthy control. At day 12, all rats were sacrificed and blood samples were collected for measurement of the DNase activity in blood.
Serum DNase I activity was measured using ORG590 (Orgentec) according to the manufacturer's protocol. Detection was performed using microplate photometer (Multiscan FC) at 450 nm with a correction wavelength of 620 nm.

[8] = test system: 16S universal bacterial RNA gene; test: 16S universal bacterial RNA gene quantification in liver and brain, leaky gut rats; assay type: in vivo, Wistar rats; conditions: twice daily IV 50 mg/kg day 7 to day 12
[9] = test system: NLRP3; test: Brain NLRP3 inflammasome expression by RT-PCR, leaky gut rats; conditions: twice daily IV 50 mg/kg day 7 to day 12
Procedure: Leaky gut was induced in 24 rats using a bacteriophage cocktail against Enterobacteriaceae, Staphylococcaceae, and Streptococcaceae families so as to induce microbiota diseases. […] Phages (1.5 mL, 1×10^6 plaque-forming units/mL of each phage cocktail) were added to drinking water according to the manufacturer's instruction and administered orally for 10 days. At day 7 of phage treatment, rats were randomized into 4 groups as follows: six rats received intrahepatic injection of 1.0×10^12 LVP in a volume of 200 μl; six rats received injection of 1.0×10^12 LVP in a volume of 200 μl into a thigh muscle; six rats received twice daily intravenous injections of recombinant DNase I protein at 50 mg/kg between day 7 and day 12. The remaining six rats were used as the untreated leaky gut control. An additional six healthy rats were used as a healthy control. […] Brain autopsies were collected to perform NLRP3 inflammasome expression analysis and 16S universal bacterial RNA gene quantification.
NLRP3 expression was assessed by collection of 50 mg cortical tissue samples. RNA was isolated using the SV total RNA isolation system (Promega). Superscript III one-step RT-PCR system with platinum Taq DNA Polymerase (Invitrogen) was used for reverse transcriptase-PCR using 5′-[sequence]-3′ (SEQ ID NO: 11) as forward NLRP3 primer and 5′-[sequence]-3′ (SEQ ID NO: 12) as reverse NLRP3 primer. […]

Molecule: Nc1ccn([C@@H]2O[C@H](CO)[C@@H](O)C2(F)F)c(=O)n1 [Gemcitabine]
- mean tumor volume ([1]; Day 17): 170 ± 13 mm^3
- mean tumor volume ([1]; Day 21): 164 ± 14 mm^3
- mean tumor volume ([1]; Day 24): 197 ± 17 mm^3
- mean tumor volume ([1]; Day 28): 246 ± 10 mm^3
- mean tumor volume ([1]; Day 31): 220 ± 8 mm^3
- mean tumor volume ([1]; Day 35): 264 ± 14 mm^3
- Dnase activity in blood ([2]; central vein): 1.15 mKuU/ml
- DNase activity in hepatic vein [2]: 1.05 mKuU/ml
- cfDNA in the liver (IHC microphotographs, FIG. 4) [3]: A large amount of cfDNA
- Cell free DNA in blood [4]: 241 ± 11 ng/mL

B1: RhDNase I: recombinant human DNase I in Patutina, 2011 (protein, UniProt P24855 23-282, looked up)
Deoxyribonuclease-1: LKIAAFNIQTFGETKMSNATLVSYIVQILSRYDIALVQEVRDSHLTAVGKLLDNLNQDAPDTYHYVVSEPLGRNSYKERYLFVYRPDQVSAVDSYYYDDGCEPCGNDTFNREPAIVRFFSRFTEVREFAIVPLHAAPGDAVAEIDALYDVYLDVQEKWGLEDVMLMGDFNAGCSYVRPSQWSSIRLWTSPTFQWLIPDSADTTATPTHCAYDRIVVAGMLLRGAVVPDSALPFNFQAAYGLSDQLAQAISDHYPVEVMLK
- suppressed the development of metastatic disease [5]: 60-90%

B2: DNaseI: DNaseI used to treat GVHD in mice (Li, 2015) (protein, UniProt P24855 23-282, looked up)
Deoxyribonuclease-1: LKIAAFNIQTFGETKMSNATLVSYIVQILSRYDIALVQEVRDSHLTAVGKLLDNLNQDAPDTYHYVVSEPLGRNSYKERYLFVYRPDQVSAVDSYYYDDGCEPCGNDTFNREPAIVRFFSRFTEVREFAIVPLHAAPGDAVAEIDALYDVYLDVQEKWGLEDVMLMGDFNAGCSYVRPSQWSSIRLWTSPTFQWLIPDSADTTATPTHCAYDRIVVAGMLLRGAVVPDSALPFNFQAAYGLSDQLAQAISDHYPVEVMLK
- treatment of GVHD in mice [6]: successful use

B3: DNase I protein (wt): recombinant wild-type DNase I protein injected IV in Example 7 (protein, UniProt P24855 23-282, looked up)
Deoxyribonuclease-1: LKIAAFNIQTFGETKMSNATLVSYIVQILSRYDIALVQEVRDSHLTAVGKLLDNLNQDAPDTYHYVVSEPLGRNSYKERYLFVYRPDQVSAVDSYYYDDGCEPCGNDTFNREPAIVRFFSRFTEVREFAIVPLHAAPGDAVAEIDALYDVYLDVQEKWGLEDVMLMGDFNAGCSYVRPSQWSSIRLWTSPTFQWLIPDSADTTATPTHCAYDRIVVAGMLLRGAVVPDSALPFNFQAAYGLSDQLAQAISDHYPVEVMLK
- Dnase activity in blood [7]: 7.15 mKuU/ml
- Average ΔCt values for universal bacterial 16S from RT-PCR, brain [8]: 27.417
- Average ΔCt values for universal bacterial 16S from RT-PCR, liver [8]: 25.752
- Average ΔCt values for brain NLRP3 from RT-PCR [9]: 17.341
